According to article PMC10673995, “Discovery of a novel cardiac-specific myosin modulator using artificial intelligence-based virtual screening” (Nature Communications, 2023):
Where “and” joins values, the source holds several entries; their conditions need not be identical. Equal entries are not always repeated. Where two headings read alike, the source gives them in different places.

Key:
[1] = target: T1, bovine β-cardiac myosin S1 (Bos taurus, UniProt Q9BE39); experiment: Cardiac acto-myosin S1 ATPase (NADH-coupled); format: biochemical; set-up: myosin S1 ATPase activity vs F-actin concentration: unit not given here; details: for myosin S1 ATPase activity vs F-actin concentration: 100 μmol/L F10, Experiment # 1-9
T1 construct: IC50 for the ATPase activity of the isolated myosin motor domain; from tissue; host or cells: bovine ventricle
T1 sequence (Q9BE39 85-778 limits assumed): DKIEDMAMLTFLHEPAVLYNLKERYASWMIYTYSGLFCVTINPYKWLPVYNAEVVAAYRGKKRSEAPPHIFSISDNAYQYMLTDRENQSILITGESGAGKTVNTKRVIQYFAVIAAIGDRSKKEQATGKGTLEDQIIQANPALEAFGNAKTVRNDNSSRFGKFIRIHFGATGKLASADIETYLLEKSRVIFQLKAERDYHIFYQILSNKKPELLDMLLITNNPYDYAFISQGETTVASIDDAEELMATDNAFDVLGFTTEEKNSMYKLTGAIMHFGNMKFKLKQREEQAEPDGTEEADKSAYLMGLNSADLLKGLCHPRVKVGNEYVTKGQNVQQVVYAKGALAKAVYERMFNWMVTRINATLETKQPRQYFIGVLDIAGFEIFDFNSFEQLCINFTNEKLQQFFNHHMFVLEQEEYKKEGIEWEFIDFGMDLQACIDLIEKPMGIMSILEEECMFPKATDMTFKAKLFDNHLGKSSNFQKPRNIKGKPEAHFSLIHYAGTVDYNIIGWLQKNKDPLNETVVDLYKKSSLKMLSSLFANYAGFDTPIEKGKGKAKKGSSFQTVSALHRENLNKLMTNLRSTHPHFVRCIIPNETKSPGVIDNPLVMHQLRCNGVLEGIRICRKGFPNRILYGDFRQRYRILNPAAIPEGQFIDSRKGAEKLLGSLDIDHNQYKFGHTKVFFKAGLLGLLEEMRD
T1 sequence (P85100 whole entry partner, the tested form may be a part): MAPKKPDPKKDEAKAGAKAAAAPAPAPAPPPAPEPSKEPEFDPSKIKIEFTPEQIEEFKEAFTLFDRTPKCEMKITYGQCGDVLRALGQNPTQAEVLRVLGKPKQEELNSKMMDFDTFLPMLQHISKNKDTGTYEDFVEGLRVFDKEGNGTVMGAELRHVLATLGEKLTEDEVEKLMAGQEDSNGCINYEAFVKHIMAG
Description: Bovine cardiac myosin S1 was prepared from bovine ventricle as previously described. Rabbit skeletal F-actin was purchased from Cytoskeleton Inc. and prepared for experiments according to manufacturer’s instructions.
20 μL of enzyme mix in buffer A (composition in mmol L^−1: 10 MOPS, 0.1 EGTA, 1 DTT, pH 7) containing 500 nmol L^−1 bovine cardiac myosin S1, 40 U mL^−1 lactate dehydrogenase and 400 U mL^−1 pyruvate kinase were dispensed into a black 96-well half area plate (Greiner). […] Each assay plate contained five wells with DMSO only (negative control) and five wells with 10 μmol L^−1 Blebbistatin (positive control). Plates were incubated on a plate shaker at 30 °C for 10 min at 2000 rpm. […] 96-channel pipette. Plates were briefly mixed by shaking at 5000 rpm on a plate shaker and spun down at 3000 g for 10 s. NADH fluorescence intensity was measured for each well using a ClarioStar Plate Reader for 10 min every 30 sec at 30 °C with the following settings: excitation at 380 nm with a 10 nm bandwidth and emission at 470 nm with a 24 nm bandwidth. Data were recorded with BMG Labtech Reader Control Software v6.20.

[2] = system: demembranated rat ventricular trabeculae; experiment: Mechanics of demembranated ventricular trabeculae (force, pCa50, ktr); set-up: Isometric force, individual trabeculae / force re-development, Representative Traces: unit not given here; details: for Normalized force, Force-pCa Titration / force re-development, Representative Traces: 20 μM F10; for Normalized Force (Tension): pCa 5.9
Description: Wistar rats (Rattus norvegicus, male, 200–250 g, 7 weeks old) were killed by cervical dislocation without the use of anesthetics (Schedule 1 procedure in accordance with UK Animal Scientific Procedure Act, 1986) and demembranated right ventricular trabeculae were prepared as described previously.
BSR-cRLCs were exchanged into demembranated trabeculae by extraction in CDTA-rigor solution (composition in mmol L^−1: 5 CDTA, 50 KCl, 40 Tris-HCl pH 8.4, 0.1% (v/v) Triton X-100) for 30 min followed by reconstitution with 40 μmol L^−1 BSR-cRLC in relaxing solution (composition in mmol L^−1: 25 Imidazole, 15 Na2Creatine phosphate (Na2CrP), 78.4 KPropionate (KPr), 5.65 Na2ATP, 6.8 MgCl2, 10 K2EGTA, 1 DTT, pH 7.1) for 1 h, replacing ~50% of the endogenous cRLC[40],[64].
The sarcomere length of trabeculae was adjusted to 2.1 μm by laser diffraction in relaxing solution prior to each activation. […] Each activation was preceded by a 2-min incubation in pre-activating solution (composition in mmol L^−1: 25 Imidazole, 15 Na2CrP, 108.2 KPr, 5.65 Na2ATP, 6.3 MgCl2, 0.2 K2EGTA, 1 DTT, pH 7.1). Solutions with varying concentrations of free [Ca^2+] were prepared by mixing relaxing and activating solutions using MAXCHELATOR software (maxchelator.stanford.edu). Isometric force and steady-state fluorescence polarization values were measured once steady force had been established. The dependence of force and order parameters on free calcium concentration was fitted to data from individual trabeculae using non-linear least-squares regression to the modified Hill Eq. (1):1 F=Y0+A⋅([Ca^2+]^nH)/(−log10[pCa50]^nH+[Ca^2+]^nH) where pCa50 is the negative logarithm of [Ca^2+] corresponding to half-maximal change in F, nH is the Hill coefficient, Y0 is the baseline, and A is the amplitude (for normalized force data: Y0 = 0 and A = 1).

[3] = system: fast skeletal muscle (Tiberialis Anterior) myofibrils; experiment: Myofibrillar ATPase, fast skeletal myofibrils; format: biochemical, marmoset (Callithrix jacchus)
From the text: Next we tested the myosin isoform specificity of F10 by measuring its effect on the ATPase activity of myofibrils isolated from ventricle, and fast (Tiberialis Anterior) and slow skeletal muscles (Soleus) isolated from marmoset (Callithrix jacchus).
Demembranated myofibrils were freshly prepared from bovine ventricle on the day of the experiments as previously described[25],[63]. Marmoset ventricular and skeletal muscle tissue was kindly provided by the Biological Service Unit of King’s College London. Steady-state myofibrillar ATPase activity was measured using an identical protocol as described above but in myofibril assay buffer (composition in mmol L^−1: 20 MOPS pH 7, 50 KCl, 0.1 CaCl2, 1 DTT) with a final bovine CMF concentration of 1 mg mL^−1.

[4] = target: bovine cardiac myofibrils (CMF) (Bos taurus, UniProt Q9BE39); experiment: Bovine cardiac myofibrillar ATPase dose-response (F10 and derivatives)
Chain of bovine cardiac myofibrils (CMF) (Q9BE39 whole entry): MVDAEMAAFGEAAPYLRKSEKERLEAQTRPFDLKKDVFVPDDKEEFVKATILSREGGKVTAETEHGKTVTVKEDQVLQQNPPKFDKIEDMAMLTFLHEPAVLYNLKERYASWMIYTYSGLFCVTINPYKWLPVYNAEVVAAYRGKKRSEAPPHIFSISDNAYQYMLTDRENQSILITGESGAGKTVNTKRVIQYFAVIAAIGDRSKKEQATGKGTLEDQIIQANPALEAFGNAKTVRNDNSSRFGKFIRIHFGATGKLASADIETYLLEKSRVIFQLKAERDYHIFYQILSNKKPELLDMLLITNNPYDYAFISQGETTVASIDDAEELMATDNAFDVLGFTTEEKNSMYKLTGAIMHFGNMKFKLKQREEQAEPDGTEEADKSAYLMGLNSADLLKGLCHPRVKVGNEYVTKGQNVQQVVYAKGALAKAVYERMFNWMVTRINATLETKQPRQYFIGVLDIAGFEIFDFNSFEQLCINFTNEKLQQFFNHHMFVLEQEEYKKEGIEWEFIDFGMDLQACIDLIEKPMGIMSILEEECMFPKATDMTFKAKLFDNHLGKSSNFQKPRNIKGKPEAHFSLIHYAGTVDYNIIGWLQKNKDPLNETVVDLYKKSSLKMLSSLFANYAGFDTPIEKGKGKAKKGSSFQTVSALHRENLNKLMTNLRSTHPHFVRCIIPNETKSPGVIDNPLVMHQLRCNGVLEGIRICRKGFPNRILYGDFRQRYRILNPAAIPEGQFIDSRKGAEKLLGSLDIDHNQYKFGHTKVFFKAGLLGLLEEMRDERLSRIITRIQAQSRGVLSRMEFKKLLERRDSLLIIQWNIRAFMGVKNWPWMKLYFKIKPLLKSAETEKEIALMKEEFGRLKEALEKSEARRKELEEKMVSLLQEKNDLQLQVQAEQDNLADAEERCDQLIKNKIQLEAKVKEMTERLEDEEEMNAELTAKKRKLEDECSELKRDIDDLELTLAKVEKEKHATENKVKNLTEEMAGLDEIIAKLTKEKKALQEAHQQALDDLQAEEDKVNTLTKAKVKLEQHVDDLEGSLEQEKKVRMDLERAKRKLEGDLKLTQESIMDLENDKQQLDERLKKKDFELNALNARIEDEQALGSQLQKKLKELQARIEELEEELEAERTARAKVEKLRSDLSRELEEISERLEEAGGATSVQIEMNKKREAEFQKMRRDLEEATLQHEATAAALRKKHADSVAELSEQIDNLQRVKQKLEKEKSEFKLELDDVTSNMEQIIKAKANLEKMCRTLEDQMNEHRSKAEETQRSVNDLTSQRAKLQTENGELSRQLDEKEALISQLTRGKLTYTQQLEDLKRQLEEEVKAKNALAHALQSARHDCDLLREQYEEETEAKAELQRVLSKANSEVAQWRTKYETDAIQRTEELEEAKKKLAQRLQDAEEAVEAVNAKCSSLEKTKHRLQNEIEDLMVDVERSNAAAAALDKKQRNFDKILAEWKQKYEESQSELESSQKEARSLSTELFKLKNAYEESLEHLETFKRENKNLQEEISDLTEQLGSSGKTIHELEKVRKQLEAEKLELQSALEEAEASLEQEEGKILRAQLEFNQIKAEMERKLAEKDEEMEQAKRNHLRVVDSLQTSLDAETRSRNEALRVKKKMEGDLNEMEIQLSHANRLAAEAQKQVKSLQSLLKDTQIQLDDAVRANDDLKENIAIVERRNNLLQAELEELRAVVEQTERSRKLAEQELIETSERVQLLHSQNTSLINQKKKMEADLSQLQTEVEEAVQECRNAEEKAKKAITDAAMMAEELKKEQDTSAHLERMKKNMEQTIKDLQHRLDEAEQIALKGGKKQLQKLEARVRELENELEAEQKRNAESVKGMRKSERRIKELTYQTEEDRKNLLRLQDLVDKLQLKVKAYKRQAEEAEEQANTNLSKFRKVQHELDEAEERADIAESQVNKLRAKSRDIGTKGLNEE
Chain of bovine cardiac myofibrils (CMF) (P85100 whole entry partner): as the sequence (P85100 whole entry partner, the tested form may be a part) above
Chain of bovine cardiac myofibrils (CMF) (Q3SZE5 whole entry partner): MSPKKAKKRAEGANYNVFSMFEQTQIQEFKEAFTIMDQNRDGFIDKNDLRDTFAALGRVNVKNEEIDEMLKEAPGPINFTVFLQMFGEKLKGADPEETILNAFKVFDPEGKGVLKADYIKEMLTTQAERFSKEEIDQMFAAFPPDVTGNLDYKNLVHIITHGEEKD

[5] = system: isolated cardiac muscle fibers; details: read-out: reported IC50 for force inhibition; cited from earlier work

CCc1cc2c(=O)n(NC(=S)NC(C)C)cnc2s1 [F10]
EC50 [1]: ~20 µM
LE (ligand efficiency) [1]: 0.34
reduction of F-actin stimulated ATPase activity ([1]; 10 μmol L^−1, mean ± s.e.m., n = 4): 44 ± 2%
myosin S1 ATPase activity vs F-actin concentration ([1]; F-Actin 0 μmol L^−1): 0
myosin S1 ATPase activity vs F-actin concentration ([1]; F-Actin 6.25 μmol L^−1): 0.1565 and 0.1528 and 0.08965 and 0.1313 and 0.1366 and 0.1027 and 0.1063
myosin S1 ATPase activity vs F-actin concentration ([1]; F-Actin 80 μmol L^−1): 0.417 and 0.4489 and 0.3031
remaining activity at 12.207 µM ([1]; F10 0.012207 mmol L-1 (so in the source), Experiment # 1-6, read-out: acto-myosin S1 ATPase activity, dose-response): 92.9%
remaining activity at 24.414 µM ([1]; F10 0.024414 mmol L-1 (so in the source), Experiment # 1-6, read-out: acto-myosin S1 ATPase activity, dose-response): 101%
remaining activity at 48.828 µM ([1]; F10 0.048828 mmol L-1 (so in the source), Experiment # 1-6, read-out: acto-myosin S1 ATPase activity, dose-response): 99.4%
remaining activity at 97.656 µM ([1]; F10 0.097656 mmol L-1 (so in the source), Experiment # 1-6, read-out: acto-myosin S1 ATPase activity, dose-response): 92.7%
remaining activity at […] ([1]; F10 0.195313 mmol L-1 (so in the source), Experiment # 1-6, read-out: acto-myosin S1 ATPase activity, dose-response): 94.4%
remaining activity at 390.625 µM ([1]; F10 0.390625 mmol L-1 (so in the source), Experiment # 1-6, read-out: acto-myosin S1 ATPase activity, dose-response): 98.9%
remaining activity at 781.25 µM ([1]; F10 0.78125 mmol L-1 (so in the source), Experiment # 1-6, read-out: acto-myosin S1 ATPase activity, dose-response): 100%
remaining activity at […] ([1]; F10 3.125 mmol L-1 (so in the source), Experiment # 1-6, read-out: acto-myosin S1 ATPase activity, dose-response): 86.8%
remaining activity at […] ([1]; F10 6.25 mmol L-1 (so in the source), Experiment # 1-6, read-out: acto-myosin S1 ATPase activity, dose-response): 79.3%
remaining activity at […] ([1]; F10 12.5 mmol L-1 (so in the source), Experiment # 1-6, read-out: acto-myosin S1 ATPase activity, dose-response): 69.6%
IC50 ([1]; IC50 acto-myosin S1 ATPase activity, means ± s.e.m., n = 6): 21.3 ± 3.4 µM
maximal decrease of actomyosin ATPase activity ([1]; dose-response, means ± s.e.m., n = 6): 89 ± 5%
maximal rate of ATP hydrolysis (kcat) ([1]; in the presence of 100 μmol/L F10, control about 1.3): about 0.5 s^−1 head^−1
apparent dissociation equilibrium constant for F-actin binding (Kapp) ([1]; in the presence of F10 (same in its absence)): about 20 μmol L^−1
IC50 ([1]; means ± s.e.m., n = 6, read-out: IC50 acto-myosin S1 ATPase activity): 21 ± 3 µM
acto-myosin S1 ATPase activity, normalized to DMSO control ([1]; single dose 10 μmol L^−1 compound, 10 μmol L^−1 F-actin, Repeat #1-#4, listed as 70): 59 and 55 and 52 and 58
Normalized force, Force-pCa Titration ([2]; pCa 4.5): 1.00
Normalized force, Force-pCa Titration ([2]; pCa 5.5): 0.88 and 0.85 and 0.81
Normalized force, Force-pCa Titration ([2]; pCa 5.6): 0.73 and 0.76 and 0.72
Normalized force, Force-pCa Titration ([2]; pCa 5.7): 0.48 and 0.55 and 0.53
Normalized force, Force-pCa Titration ([2]; pCa 5.8): 0.13 and 0.14 and 0.18
force re-development, Representative Traces ([2]; t 0.0001 s): 0.9946
force re-development, Representative Traces ([2]; t 0.0002 s): 0.9927
force re-development, Representative Traces ([2]; t 0.0003 s): 0.9927
force re-development, Representative Traces ([2]; t 0.0004 s): 0.9927
IC50 ([2]; Rattus norvegicus, pCa 5.9, about 50% maximal activation, read-out: IC50 active isometric force): 9 µM
pCa50 of force development ([2]; in the presence of F10 (20 μM), control 5.88 ± 0.02): 5.69 ± 0.01 and 5.68 and 5.693 and 5.684
Tmin ([2]; individual replicates): 2.9 and 4.1 and 1.3 and 4.3 and 4.9
ktr ([2]; individual replicates): 35.4 and 37.1 and 32.7
nH ([2]; individual replicates): 5.8 and 6.0 and 4.9
pCa50 ([2]; individual replicates): 5.68 (2×) and 5.69
Isometric force, individual trabeculae ([2]; pCa 4.5, 20 μmol L^−1 F10): 16.0321 and 19.6135 and 8.993 and 17.2526 and 16.2235
decrease of maximal active isometric tension ([2]; pCa 4.5, 20 μmol L^−1 F10): more than 75%
Normalized Force (Tension) ([2]; F10 5 micromolar): 80.6034 % control
Normalized Force (Tension) ([2]; F10 10 micromolar): 50.8621 % control
Normalized Force (Tension) ([2]; F10 20 micromolar): 27.5862 % control
Normalized Force (Tension) ([2]; F10 40 micromolar): 17.2414 % control
Isometric force, individual trabeculae ([2]; pCa 9, 20 μmol L^−1 F10): 2.857 and 4.07 and 1.256 and 4.268 and 4.903
effect on passive tension ([2]; pCa 9, 20 μmol L^−1 F10): no effect
Tmin (passive tension) ([2]; pCa 9, 20 μmol L^−1 F10, control 3.4 ± 0.5): 3.5 ± 0.6 mN mm-2
rate of force re-development ktr, individual trabeculae (Bar Graph) ([2]; slack-re-stretch protocol, F10, in s-1 (unit assumed)): 35.4 and 37.11 and 32.67
rate of force re-development ktr ([2]; slack-re-stretch protocol, in the presence of F10, control 12.0 ± 1.9): 35.1 ± 1.3 s⁻¹ and 35 ± 1 s⁻¹
effect on ATPase of myofibrils isolated from fast skeletal muscle ([3]; 20 μmol L^−1 F10): no effect
Myofibrilar ATPase, individual experiments ([3]; Tiberialis Anterior, 20 μmol L^-1 F10): 103.058% and 94.7749% and 105.182% and 96.587% and 92.4359% and 90.2726% and 101.147% and 99.8027% and 75.8898% and 104.538% and 92.5792% and 95.4782% and 84.5124% and 86.7812% and 82.9998% and 107.831% and 122.01% and 86.3954% and 97.5199% and 112.738% and 111.197% and 105.032% and 96.8457%
Myofibrilar ATPase [%], change vs control ([3]; Tiberials Anterior (fast), 20 μmol L^-1 F10): -3%
IC50 [4]: ~24 µM
maximal inhibition of bovine CMF ATPase activity ([4]; suboptimal Ca^2+-activation, about 70% maximal activation): about 60%

CC(C)n1c(=O)cc(N[C@@H](C)c2ccccc2)[nH]c1=O [Mavacamten]
IC50 [5]: ~1 µM
